From patent US11815508B2, “Dynamic BH3 profiling” (Dana-Farber Cancer Institute, Inc., priority 2012, dated 2023)

Experiments:
Assay type in all cases: cell-based, human
SuDHL4 cell line = assay: miBH3 profile of the SuDHL4 cell line; settings: response to BH3 peptides
Method: FIGS. 14A-14B are a series of bar graphs showing the correlation of miBH3 profiles with known profiles.
Dynamic BH3 profiling can be accomplished at the single cell level by immobilizing cells on a solid surface. Optionally the solid surface is polyamine or poly-lysine coated. Immobilized cells are permeabilized as described above. The cells are then contacted with BH3 peptides and/or test agents. After the cells have been treated for a predetermined period of time such as 45-90 minutes, the cells are fixed and permeabilized by methods known in the art. For example the cells are fixed with formaldehyde and further permeabilized with methanol or triton x-100. Outer membrane permeabilization is determined intracellular staining for molecules from the mitochondrial inter-membrane space and a mitrochondrial marker. Examples of molecules that can be measured include cytochrome c and SMAC/Diablo, Omi, adenylate kinase-2 or apoptotic-inducing factor (AIF). Mitochondrial markers include MnSOD. Stained cells can be counterstained with nuclear stains such as DAPI. Optionally other intracellular and extracellular markers can be measured. Analysis of the cells can be manually accomplished using a microscope or automated for example by using software such as Cellprofiler to locate nuclei.
MicroBH3 (miBH3) is a BH3 profiling method where the measurement of the mitochondrial effect of BH3 peptides have on individual cells by microscopy. To accomplish this, cells are immobilized on polyamine or poly-lysine coated surfaces and treated with low concentrations of digitonin in a mitochondrial buffer to permeabilize the plasma membrane and grant access to the mitochondria without cell disruption. […] Fixed cells by this method can be readily stopped at the fixation step and can be analyzed weeks after acquisition as well as readily re-analyzed if needed.

K562 [1] = assay: Dynamic BH3 profiling, K562 cells; settings: for change in depolarization caused by the BIM BH3 peptide following drug treatment: drug exposure 16 hours
Method: (§1) The change in depolarization caused by the BIM BH3 peptide following drug treatment is shown. […] Imatinib is a positive control.
(§2) In various methods, sensitivity of a cell to an agent is determined. The methods include contacting a test cell with a test agent. Cell sensitivity to the test agent is determined by contacting the test cell or test cellular component (e.g., mitochondria) exposed to the test agent with standardized concentration of a panel of BH3 domain peptide from the pro-apoptotic BCL-2 family.
(§3) The cell or cellular component is a cancer cell or a cell that is suspected of being cancerous. The cell is permeabilized to permit the BH3 peptides access to the mitochondria. Cells are permeabilized by methods known in the art. For example, the cell are permeabilized by contacting the cell with digitonin, or other art-recognized detergents and cell-permeabilization agents.
(§4) After the cells are permeabilized the cells are treated with the BH3 peptides or test agents. After the cell is treated, mitochondrial outer membrane permeabilization is measured. Outer membrane permeabilization is measured by a number of methods. For example outer membrane permeabilization is measured by loss of mitochondrial membrane potential. Loss of mitochondrial membrane potential is measured for example by treating the cells with a potentiometric or radiometric dye.

K562 [2] = assay: Cell death by Annexin V/PI, K562 cells; settings: drug exposure 72 hours
Ku812 [3] = assay: Dynamic BH3 profiling, Ku812 cells
Method: as §1, §2, §3, §4

Ku812 [4] = assay: Cell death, Ku812 cells
PC9 = assay: Dynamic BH3 profiling, NSCLC cell line PC9; settings: gefitinib 1 μM, WZ4002 100 nM, 16 hours; BH3 peptide Bim at low concentrations
Method: (§5) In various methods, sensitivity of a cell to an agent is determined. The methods include contacting a test cell with a test agent. Cell sensitivity to the test agent is determined by contacting the test cell or test cellular component (e.g., mitochondria) exposed to the test agent with standardized concentration of a panel of BH3 domain peptide from the pro-apoptotic BCL-2 family. […] The cell or cellular component is a cancer cell or a cell that is suspected of being cancerous. The cell is permeabilized to permit the BH3 peptides access to the mitochondria. Cells are permeabilized by methods known in the art. For example, the cell are permeabilized by contacting the cell with digitonin, or other art-recognized detergents and cell-permeabilization agents. After the cells are permeabilized the cells are treated with the BH3 peptides or test agents. After the cell is treated, mitochondrial outer membrane permeabilization is measured. Outer membrane permeabilization is measured by a number of methods. For example outer membrane permeabilization is measured by loss of mitochondrial membrane potential. Loss of mitochondrial membrane potential is measured for example by treating the cells with a potentiometric or radiometric dye. Three different cell lines were used: PC9, PC9 gefitinib resistant (PC9GR, including the mutation T790M) and PC9GR resistant to WZ4002 (PC9WZR). […]

PC9GR = assay: Dynamic BH3 profiling, PC9 gefitinib resistant; settings: gefitinib 1 μM, WZ4002 100 nM, 16 hours; BH3 peptide Bim at low concentrations
Method: as §5

PC9WZR = assay: Dynamic BH3 profiling, PC9GR resistant to WZ4002; settings: gefitinib 1 μM, WZ4002 100 nM, 16 hours; BH3 peptide Bim at low concentrations
Method: as §5

LWAAQRYGRELRRMSDEFEGSFKGL [BAD]
release of cytochrome c and loss of correlation between cytochrome c and MnSOD channels (SuDHL4 cell line): Release of cytochrome c and loss of correlation

Cn1c(=O)n(-c2ccc(C(C)(C)C#N)cc2)c2c3cc(-c4cnc5ccccc5c4)ccc3ncc21 [BEZ235]
change in depolarization caused by the BIM BH3 peptide following drug treatment (K562 [1]): significant changes | cell death response (Annexin V/PI) (K562 [2]): unexpected killing

Cc1sc2c(c1C)C(c1ccc(Cl)cc1)=N[C@@H](CC(=O)OC(C)(C)C)c1nnc(C)n1-2 [JQ1]
priming by dynamic BH3 profiling (Ku812 [3]; epigenetic modifying agents, imatinib positive control): increases priming | cell death (Ku812 [4]): induce cell death

EQWAREIGAQLRRMADDLNA [PUMA]
release of cytochrome c and loss of correlation between cytochrome c and MnSOD channels (SuDHL4 cell line): Release of cytochrome c and loss of correlation

COc1cc(N2CCC(N3CCN(C)CC3)CC2)ccc1Nc1ncc(Cl)c(Nc2ccccc2S(=O)(=O)C(C)C)n1 [TAE-684]
change in depolarization caused by the BIM BH3 peptide following drug treatment (K562 [1]): significant changes | cell death response (Annexin V/PI) (K562 [2]): unexpected killing

HQAEVQIARKLQLIADQFHR [BMF]
release of cytochrome c and loss of correlation between cytochrome c and MnSOD channels (SuDHL4 cell line): Release of cytochrome c and loss of correlation

C=CC(=O)Nc1cccc(Oc2nc(Nc3ccc(N4CCN(C)CC4)cc3OC)ncc2Cl)c1 [WZ4002]
sensitivity (change in priming) by dynamic BH3 profiling (PC9): sensitive | sensitivity (change in priming) by dynamic BH3 profiling (PC9GR): sensitive | sensitivity (change in priming) by dynamic BH3 profiling (PC9WZR): insensitive

COc1cc2ncnc(Nc3ccc(F)c(Cl)c3)c2cc1OCCCN1CCOCC1 [gefitinib]
sensitivity (change in priming) by dynamic BH3 profiling (PC9): sensitive | sensitivity (change in priming) by dynamic BH3 profiling (PC9GR): insensitive | sensitivity (change in priming) by dynamic BH3 profiling (PC9WZR): insensitive

Cc1ccc(NC(=O)c2ccc(CN3CCN(C)CC3)cc2)cc1Nc1nccc(-c2cccnc2)n1 [imatinib]
change in depolarization caused by the BIM BH3 peptide following drug treatment (K562 [1]): significant changes | priming, several BH3 peptides (K562 [1]; imatinib 1 μM, 16 h and 8 h): increase in priming | priming, several BH3 peptides (Ku812 [3]; imatinib 1 μM, 16 h and 8 h): increase in priming | cell death (Ku812 [4]): induce cell death
